Reference: a melting point compilation (Tetko et al.; mined from patent text by program, amines drawn as free bases though some values may be those of a salt)

Row | Compound | melting point
1 | O=C(CC(CSc1nc2ccccc2s1)C(=O)NC1CCCCC1)NC1CCCCC1 (stereo not given) | 147 to 149 °C
2 | N#Cc1ccc(OCCc2c[nH]cn2)cc1 | 181 to 183 °C
3 | Cc1ccc(S(=O)(=O)Nc2ccc(C#N)cc2[N+](=O)[O-])cc1 | 150 to 152 °C
4 | CC(=O)Oc1c(C)cc(C2C(=O)Oc3c2cc(C(C)(C)C)cc3C(C)(C)C)cc1C (stereo not given) | 165 to 166 °C
5 | CCCCCCCCCCCCCCCCCC1CC(O)C(CC)C(=O)O1 (racemic) | 101 to 102 °C
6 | Cc1c(-c2cccc(C(F)(F)F)c2F)c2cccc(Cl)c2n1CCCNS(C)(=O)=O | 168 °C
7 | COP(=O)(OC)[C@H](C)NC(=O)[C@H](C)NC(=O)[C@H](C)NC(=O)OCc1ccccc1 | 149 to 151 °C
8 | CCCC[C@H](NC(=O)[C@H](COC(C)(C)C)NC(=O)OCc1ccccc1)C(=O)CSCc1ccco1 | 71 to 73 °C
9 | CC[C@H]1COC(=O)N1c1nc(-c2ccc(C#N)cc2)c(Cl)s1 | 157 to 159 °C
10 | O=[N+]([O-])c1ccc(NN=Cc2ncc[nH]2)nc1 | 268 to 269 °C
11 | CC1(C)CC2(CC(c3ccc(F)cc3)=C1/C=C/[C@H]1C[C@H](O)CC(=O)O1)OCCO2 (relative stereo) | 142 to 144 °C
12 | CCOC(=O)COCCn1c(=O)[nH]c2ccccc2c1=O | 115 to 116 °C
13 | COC(=O)C1(O)CCCC(=O)C1N=Nc1ccccc1 (stereo not given) | 144 °C
14 | O=[N+]([O-])c1cn(-c2cccnc2)nc1Cl | 139 to 142 °C
15 | CC(C)(Cn1c(CO)nc2c(N)nc3cccnc3c21)NC(=O)C1CCCCC1 | 230 to 232 °C
16 | C=CCOc1ccc(C(=O)C=Cc2cc(OC)c(CCCCCC)c(OC)c2)cc1 | 77.9 to 78.2 °C
17 | CC(C)Oc1cc(-n2c(=O)[nH]c(C(F)(F)C(F)(F)F)c(F)c2=O)c(F)cc1Cl | 160 to 162 °C
18 | FC(F)(F)c1cc(C#CCBr)cc(C(F)(F)F)c1 | 30 to 31 °C
19 | CC(C)(C)c1nc2cc(N3CCOCC3)c([N+](=O)[O-])cc2s1 | 119 to 121 °C
20 | COc1ccc(C2C3=C(COC3=O)Nc3ccc4nn[nH]c4c32)c(F)c1 (stereo not given) | 308 to 310 °C

Next, values leading:

Row | melting point | Compound
21 | 74 to 90 °C | CN1CC(CCN(C)c2ccccc2)N(C)c2nc3ccccc3n2C1=O (stereo not given)
22 | 207 °C | COc1ccc(-c2nsc3ccc([N+](=O)[O-])cc23)cc1
23 | 95 to 98 °C | O=C(O)C(c1ccccc1)n1cnc2[nH]ncc2c1=S (stereo not given)
24 | 77 to 79 °C | C=CC1(CC)OC(=O)c2ccc(Oc3ccc(C(F)(F)F)cc3Cl)cc21 (stereo not given)
25 | 185 to 186 °C | COC(=O)[C@H](Cc1ccc(O)cc1)Nc1ccccc1C(=O)c1ccccc1
26 | 54 to 55 °C | COc1ccc(N2CCN(CCOCc3ccccc3)C2=O)cc1
27 | 168 °C | Cc1cc(C)cc(-c2cc(O)c(Sc3ccccc3CC3CC3)c(=O)o2)c1
28 | 127 to 129 °C | COc1ccc(CCN2CCC(C(O)c3nc4ccccc4s3)CC2)cc1 (stereo not given)
29 | 161 to 165 °C | CN(O)C(=O)C(=O)c1ccc(OCCOc2ccc3ccccc3c2)cc1
30 | 167 to 169 °C | Oc1ccc(O)c2cc3ccccc3cc12
31 | 89 to 90 °C | O=C(CCCO)c1ccc(CCNS(=O)(=O)c2ccccc2)cc1
32 | 67 to 69 °C | CCOC(=O)C(C)C(O)(c1ccc(OC)cc1)c1ccc(OC)cc1 (stereo not given)
33 | 168 to 169 °C | Cc1cc(OCc2ccc(-c3ccc(C(F)(F)F)cc3)nc2C)ccc1SCC(=O)O
34 | 42 to 44 °C | CCc1cc2ccccn2c1
35 | 214 to 215 °C | CC(C)c1cccc(C(C)C)c1NC(=O)NC1CCc2ccccc2C1 (stereo not given)
